Assay results as given in patent publication US4885299A, “2-(2,3-dihydro-2-oxo-3-benzofuranyl)acetic acids antihypoxic and nootropic effects having” (ADIR Et Cie, priority 1987, dated 1989).
Counter-ions that a name gives are not always drawn. Like-named read-outs stand apart in the source and are kept apart here.

Legend:
[1] = system: Acute hypoxia in mice; survival of the brain; test: Acute hypoxia in mice (hypobaric); brain survival time to final respiratory gasp; assay type: in vivo, Male CD1 mice (Charles River)
Experimental: (§1) The compounds of the present invention were tested in respect of their capacity to prolong the survival of cerebral tissue during acute hypoxia in mice, or to maintain the level of tissue energy-rich compounds in rats subjected to a fall in the oxygen supply [Pharmacology of Cerebral Ischemia, p. 334-339 (1968) Elsevier Science Publishers B.V., J. Krieglstein ed.]. […] Forsch. Drug. Res. (1986), 36 II No. 9, p. 1314-1320].
The survival of the brain is assessed by measuring the time at which the final respiratory gasp is observed.
The survival time of a treated batch is compared with that of a control batch receiving only the solvent.
The percentage increase in the survival time after the animals are treated with the compounds of the invention is shown in Table II.

[2] = system: brain energy-rich compounds (ATP, ADP, AMP); test: Acute hypoxia in rats; protection of tissue energy-rich compounds in brain (ATP, energy content); assay type: in vivo, Male Fischer 344 rats (Charles River); conditions: 3% oxygen for 2 minutes
Experimental: as §1
Whereas the control rats breath a gaseous mixture containing 21% of oxygen and 79% of nitrogen, the rats subjected to hypoxia breath a mixture of 3% oxygen and 97% nitrogen for 2 minutes.
At the end of the hypoxic period, the animals are rapidly sacrificed by total immersion in liquid nitrogen. The frozen brain is removed and the energy-rich compounds (ATP, ADP, AMP) are extracted and assayed by the luciferin luminescence method.
The tissue energy content (EC) is calculated according to ATKINSON's formula: [formula]

[3] = Mus musculus, ip, 30 mg/kg I.P., 30 minutes before hypoxia, mice, read-out: Percentage increase in the survival time
[4] = Mus musculus, ip, 100 mg/kg I.P., 30 minutes before hypoxia, mice, read-out: Percentage increase in the survival time
[5] = 100 mg/kg I.P., 30 minutes before hypoxia, mice
[6] = Mus musculus, ip, read-out: Percentage increase in the survival time

Structure (SMILES) | change in vivo at 30 mg/kg [1, 3] | change in vivo at 100 mg/kg [1, 4] | % inhibition of the effects of hypoxia, ATP ([2]; 30 mg/kg I.P.) | % inhibition of the effects of hypoxia, EC (tissue energy content) ([2]; 30 mg/kg I.P.) | % inhibition of the effects of hypoxia, ATP ([2]; 100 mg/kg I.P.) | % inhibition of the effects of hypoxia, EC (tissue energy content) ([2]; 100 mg/kg I.P.) | Percentage increase in the survival time [1, 5] | also measured
O=C(CC1(c2ccccc2)C(=O)Oc2ccc(F)cc21)N1CCN(Cc2ccc3c(c2)OCO3)CC1 (stereo not drawn) [Example 20, 2-(5-Fluoro-2,3-dihydro-2-oxo-3-phenyl-3-benzofuranyl)-1-[4-(3,4-methylenedioxybenzyl)piperazinyl]-1-oxoethane hydrochloride] | 104% | 100% | 56.9% | 61.3% | 70.2% | 71.5% | – | Percentage increase in the survival time ([1]; 100 mg/kg I.P., 30 minutes before hypoxia, mice, listed as Ex. 20, hydrochloride): +100%; change in vivo at 10 mg/kg ([1]; Mus musculus, ip, 10 mg/kg I.P., 30 minutes before hypoxia, mice, read-out: Percentage increase in the survival time): 52%; change in vivo at 300 mg/kg ([1]; Mus musculus, ip, 300 mg/kg I.P., 30 minutes before hypoxia, mice, read-out: Percentage increase in the survival time): 128%
CN(C)CCOC(=O)COc1ccc(Cl)cc1 [Meclofenoxate, meclofenoxate, reference compound] | – | – | – | – | – | – | +22% | change in vivo at 30 mg/kg [1, 6]: 4%; change in vivo at 100 mg/kg [1, 6]: 22%; change in vivo at 600 mg/kg [1, 6]: 190%; % inhibition of the effects of hypoxia, ATP ([2]; 300 mg/kg I.P.): 59.7%; % inhibition of the effects of hypoxia, EC (tissue energy content) ([2]; 300 mg/kg I.P.): 69.6%
O=C(CC1(c2ccccc2)C(=O)Oc2ccc(Cl)cc21)N1CCN(c2ccc(C(F)(F)F)cn2)CC1 (stereo not drawn) [Example 9, 2-(5-Chloro-2,3-dihydro-2-oxo-3-phenyl-3-benzofuranyl)-1-[4-(5-trifluoromethyl-2-pyridyl)piperazinyl]-1-oxoethane] | – | – | 65.6% | 60.1% | – | – | greater than 180% | Percentage increase in the survival time ([1]; 3 mg/kg I.P., 30 minutes before hypoxia, mice): +65%; Percentage increase in the survival time ([1]; 10 mg/kg I.P., 30 minutes before hypoxia, mice): +82%; Percentage increase in the survival time ([1]; 30 mg/kg I.P., 30 minutes before hypoxia, mice): +77%; Percentage increase in the survival time ([1]; 100 mg/kg I.P., 30 minutes before hypoxia, mice, listed as Ex. 9): +183%
O=C(O)CC1(c2ccccc2)C(=O)Oc2ccc(Cl)cc21 (stereo not drawn) [Example 1, 2-(5-Chloro-2,3-dihydro-2-oxo-3-phenyl-3-benzofuranyl)acetic acid] | – | 46% | – | – | 54% | 61.7% | – | –
O=C(CC1(c2ccccc2)C(=O)Oc2ccc(Cl)cc21)N1CCN(Cc2ccc3c(c2)OCO3)CC1 (stereo not drawn) [Example 16, 2-(5-Chloro-2,3-dihydro-2-oxo-3-phenyl-3-benzofuranyl)-1-[4-(3,4-methylenedioxybenzyl)piperazinyl]-1-oxoethane] | 64% | 100% | – | – | 77.5% | 76.3% | – | Percentage increase in the survival time ([1]; 100 mg/kg I.P., 30 minutes before hypoxia, mice, listed as Ex. 16): +100%
